Columns and labels:
[1] = tested on: patients with major depressive disorder; assay: Randomized, placebo controlled study of BTRX-246040 in patients with major depressive disorder; type: in vivo, human
Text: The disclosed systems and methods were used in a randomized, placebo controlled study to identify patients that would respond to BTRX-246040 (LY2940094)—a nociceptin receptor antagonist (“NOPA”). Details about the chemical structure and other properties, uses and indications for BTRX-246040 are disclosed in J M Witkin et al., “Therapeutic Approaches for NOP Receptor Antagonists in Neurobehavioral Disorders: Clinical Studies in Majority Depressive Disorder and Alcohol Use Disorder with BTRX-246040,” the content of which is incorporated herein by reference in its entirety. Additionally, BTRX-246040, it's uses, indications, treatments, and forms are disclosed in U.S. Pat. No. 8,232,289 filed Nov. 10, 2010, titled “Spiropiperidine Compounds as ORL-1 Receptor Antagonists” and U.S. Publication NO. 2012/0214784 filed Aug. 23, 2012 titled “Spiropiperidine Compounds as ORL-1 Receptor Antagonists,” both of which are incorporated by reference in their entirety herein.
During the study disclosed herein, BTRX-246040 was administered once daily in patients with major depressive disorder without anhedonia. The study included 73 patients with 38 randomized to BTRX-246040 and 35 randomized to the placebo. The BTRX group had 17 responders and the placebo had 15 responders. The study included the following methods: • 28 days screening period • Eight (8 (weeks of active treatment • Off-drug follow up after one to two weeks • 104 MDD patients randomized • 1:1 ratio stratified by SHAPS≤4 and SHAPS>4 • dosage: 40 mg first week, then 80 mg onwards when tolerated
The following are known clinical questionnaires that were utilized at the indicated time points above: • Montgomery-Asberg Depression Scale (MADRS) • Hamilton Anxiety Scale (HAMA) • Hospital Anxiety and Depression Scale (HADS-A/HADS-D) • Snaith-Hamilton Pleasure Scale (SHAPS) • Dimensional Anhedonia Rating Scale (DARS) Tasks
The primary outcome of the study utilized was the clinical scale MADRS total at week 8. […]

[2] = tested on: patients with mood and anxiety spectrum disorders; assay: FAST-MAS phase 2a study of CERC-501 in mood and anxiety spectrum disorders; type: in vivo, human
Text: In another example, during a phase 2a study known as FAST-MAS was run to evaluate the Kappa Opioid Receptor (“KOR”) as a target for the treatment of mood and anxiety spectrum disorders. Additionally, CERC-501, it's uses, indications, treatments, and forms are disclosed in PCT Publication No. WO2018170492, filed Mar. 16, 2018, titled “Kappa Opioid Receptor Antagonists and Products and Methods Related Thereto” which is incorporated by reference herin in its entirety. During the trial, CERC-501 was tested to see whether it engaged key neural circuitry related to the hedonic response.
The FAST-MAS trial included a 30-day screening period, followed by 8 weeks of active treatment, follow up 12 weeks of off-drug follow up after baseline. The study included […] (of 163 enrolled) to include 45 on CERC-501 and 44 to the Placebo. The patients received […] daily for the 8 weeks of active treatment.
Patients were eligible for enrollment if they met both: • (i) DSM-IV TR critiera for at least one of: • MDD • Bipolar I or II Depressed • GAD • Social Phobia • Panic Disorder • PTSD; and • (ii) SHAPS score of ≥20
Furthermore, the primary outcome measures were the following measures included in Table 7 below. These include the fMRI, the SHAPS scale, and the PRT task as disclosed herein

SMILES	number of responders ([1]; 38 patients randomized to BTRX-246040, once daily, 40 mg first week then 80 mg, 8 weeks, high responder = MADRS decrease by 50% from baseline)	group level treatment effects versus placebo ([1]; across all subjects, MADRS total at week 8, FIGS. 15A-15B)	change on the MADRS scale in patients identified by the classifiers as higher responders ([1]; after the 8-week study, subgroup chosen by classifiers from baseline data, FIGS. 16A-16B)	impact on patients identified using the Bayesian Decision Lists versus patients generally that received active treatment ([2]; subgroup identified by rule list, FIGS. 26A-26B)	outcome and treatment response ([2]; whole patient cohort, 8 weeks of active treatment)
Cc1nn(-c2ncccc2CO)cc1CN1CCC2(CC1)OCC(F)(F)c1cc(Cl)sc12 [BTRX-246040]	17	did as well as the placebo	greater than 5 point	–	–
Cc1cc(C)cc([C@@H]2CCCN2Cc2ccc(Oc3ccc(C(N)=O)cc3F)cc2)c1 [CERC-501]	–	–	–	greater on the patients identified using the Bayesian Decision Lists than the impact generally on the patients that received the active treatment	illustrated a difference in the outcome and treatment response

Source: patent publication US11857322B2, “Systems and methods for screening, diagnosing, and stratifying patients” (BlackThorn Therapeutics, Inc., priority 2018, dated 2024)
